Test results: US4272507A, “Phenylaminothiophenacetic acids, their synthesis, compositions and use” (priority 1978, dated 1981)
Where two headings read alike, the source gives them in different places.

How the values were obtained:
[1] = system: pain reaction provoked in rats by bending an inflamed ankle (AgNO3 arthritis); test: animal or person; assay type: in vivo; conditions: for Therapeutic quotient LD50/ED50 / therapeutic quotient LD50/ED25: AgNO3 arthritis pain, LD50 7 days oral; for Therapeutic quotient LD50/ED50 / therapeutic quotient LD50/ED25 / ED50 / Inhibition of the pain reaction: rats; for ED25 / ED50: Rattus norvegicus, po; for ED25: read-out: ED25 (dose which completely suppresses the pain reaction in 25% of the animals); for ED50: perorally, at the time of maximum action, read-out: ED50 (dose which completely suppresses the pain reaction in 50% of the animals)
Protocol: Based on the method of HOFFMEISTER et al. [Arzneim. Forsch., 24, (1974) 600], 0.2 ml of a 1% strength silver nitrate solution is injected into the ankle joint (inside) of the right hind paw of female Sprague-Dawley rats (each animal weighing about 160 to 180 g) under ether anaesthesia. The animals are kept at 24° C. and are fed Altromin®R and water ad libitum. After the AgNO3 injection, almost all the animals (90 to 95%) can be made to cry out by moderate bending of the ankle joint. All the animals reacting positively are collected into groups of 10 animals. The compounds to be tested are administered orally in a volume of liquid of 10 ml/kg immediately after administration of the AgNO3; the untreated control animals receive the corresponding amount of tapwater.
Over a period of 4 hours after administration of the substance, the number of animals reacting is determined at half hourly intervals.
The maximum percentage of the protected animals over a period of 4 hours after administration of the substance [relative to the number of animals in the control group reacting (=100%)] serves as a measure of the analgesic action.

[2] = system: formation of granulation tissue after subcutaneous implantation of cotton; test: Chronic antiphlogistic action: cotton pellet test (formation of granulation tissue) in rats; conditions: rats; for Therapeutic quotient LD50/ED20: cotton pellet test, LD50 7 days oral; for Inhibition of the formation of granulation tissue after treatment for 7 days: sodium salt
Protocol: (§1) Biol. Med., 111 (1962) 544]}, on chronic inflammatory processes {Cotton pellet test on rats [Winter et al.: J. Pharmacol. exp. Therap., 141 (1963) 369]} and on adjuvant arthritis [based on the method of Perrine et al., Brit. J. Pharmacol., 21 (1963) 127] is determined.
(§2) Experimental procedure for investigating the influence of the compounds to be tested on the formation of granulation tissue after implantation of cotton in rats (so-called cotton pellet method):
(§3) 1 cotton pellet (manufacturer: Messrs. Hartmann/Heidenheim; cotton pellets size 2, No. 4865/2) which weighs 13.0±0.5 mg and has been impregnated beforehand with 0.1 ml of a solution of 0.5 mg of penicillin G and 0.8 mg of streptomycin sulfate/1 ml of distilled water is in each case implanted subcutaneously into the shoulder-blade region, on both sides, of male Sprague-Dawley rats (groups of 8 animals each; weight of each animal: 150 to 170 g) under diethyl ether anaesthesia and under sterile conditions. The cut skin is closed by means of clamps.
(§4) The compounds to be tested (in the form of the sodium salt in aqueous solution) or the corresponding amount (5 ml/kg/day) of tapwater (=control group) are administered orally each day on seven successive days. On the eighth day, the animals are killed and the cotton granules are exposed carefully, that is to say preserving the fibrous tissue capsule, dried (15 hours at 120°) and weighed. By substracting the weight of the cotton pellets, the amount of newly formed granulation tissue is obtained.
(§5) The percentage reduction in the average granuloma dry weight of a treated group compared with the control group (=100%) serves as a measure of the antiproliferative action of a compound.

[3] = as above; conditions: rat, in vivo, po
Protocol: as §1, §2, §3, §4, §5

[4] = system: adjuvant arthritis in rats; test: Antiarthritic action: adjuvant arthritis in rats (Mycobacterium butyricum); conditions: for ED25: Rattus norvegicus, po, 120 h, read-out: ED25 (inhibition of adjuvant arthritis of 25%); for therapeutic quotient LD50/ED25: adjuvant arthritis, LD50 7 days oral, rats
Protocol: as §1
The influence of the compounds to be tested on polyarthritis in rats caused by Mycobacterium butyricum (so-called "adjuvant arthritis") was determined using the experimental arrangement hereafter described: based on the method described by NEWBOULD and PERRINE et al. [NEWBOULD, B. B.; Brit. J. Pharmacol. 21, 127 (1963); and PERRINE, J. W. and TAKESUE, E. I.; Arch. int. Pharmacodyn., 174, 192 to 198 (1968)], so-called adjuvant arthritis, which manifests itself chiefly in a severe swelling of the tail (primary lesion) and of the paws (secondary lesion), is caused in rats by intradermal injection of a Mycobact. butyricum suspension in liquid paraffin into the base of the tail. Antiphlogistic agents inhibit this swelling reaction.

[5] = system: yeast-induced fever in rats; test: Antipyretic action: yeast-induced fever in rats; assay type: in vivo, rats (female Sprague-Dawley); conditions: for ED (1.5 degC): Rattus norvegicus, po, read-out: ED1.5 (dose which causes a maximum reduction in yeast-induced fever of 1.5° C.)
Protocol: The antipyretic action is determined by the influence of the compounds to be tested on yeast-induced fever in rats.
Hyperthermia is produced in female Sprague-Dawley rats (in groups of 5 animals; weight of each animal: 160 to 180 g) by subcutaneous injection (neck) of 10 ml/kg of a 20 percent strength aqueous brewer's yeast suspension (brewer's yeast "Heliosan"/Hefereformwerk Radolfzell). 24 hours after the yeast injection, the compounds to be tested are administered orally to the animals in a volume of liquid of 5 ml/kg, and a control group receives the corresponding amount of tapwater. The feed (Altromin®R, water ad libitum) was withdrawn from the rats 18 hours beforehand. The rats are kept at about 23° C.
The body temperature is recorded 1 hour before administration of the substance and at hourly intervals after administration of the substance.
[…] The body temperature is measured with a temperature probe (Tastomed H, Braun electronic).

[6] = system: carrageenin edema of the hind paw of rats; test: Acute antiphlogistic action: carrageenin edema of the hind paw of rats after single oral administration; conditions: for ED50: Rattus norvegicus, po, read-out: ED50 (dose which causes a maximum edema inhibition of 50%); for Therapeutic quotient LD50/ED50: carrageenin edema, LD50 7 days oral; for Therapeutic quotient LD50/ED50 / Maximum inhibition of carrageenin edema within 7 hours after oral administration: rats
Protocol: as §1
The influence of the compounds to be tested on carrageenin edema of the hind paw of rats was determined as follows:
The rats are kept at 24° C.
The paw volume of each rat is determined (2 to 3 individual measurements in each case) before edema provocation and at hourly intervals for 7 hours after edema provacation. The average percentage paw swelling of each treated group determined at the specified times after the carrageenin injection is related to that of the untreated control group (=100%).
The maximum percentage edema inhibition serves as a measure of the antiphlogistic action.
The paw volume is determined plethysmometrically. Measuring principle: the volume of liquid displaced through the paw of the rat is recorded digitally via an electromechanical pressure transducer (Statham P 23 V, 0-200 mm Hg).
The doses indicated for the compounds tested were administered in a volume of liquid of 20 ml/kg.

[7] = in vivo; conditions: rat, po
[8] = versus phenylbutazone; cited from earlier work
[9] = versus phenylbutazone; cited from earlier work; remark: listed apart in the source

O=C(O)Cc1cscc1Nc1c(Cl)cccc1Cl [Compound 3, 4-(2,6-dichloroanilino)-3-thiophenacetic acid]
Therapeutic quotient LD50/ED50 [1]: 3.67
therapeutic quotient LD50/ED25 [1]: 11
ED25 [1]: 1 mg/kg
ED50 [1]: 3 mg/kg
Inhibition of the pain reaction ([1]; single oral dose 1 mg/kg): 26%
Inhibition of the pain reaction ([1]; single oral dose 3 mg/kg): 50%
Inhibition of the pain reaction ([1]; single oral dose 10 mg/kg): 62%
Therapeutic quotient LD50/ED20 [2]: ~ 11
Inhibition of the formation of granulation tissue after treatment for 7 days ([2]; 7 x 0.1 mg/kg/day orally): 6%
Inhibition of the formation of granulation tissue after treatment for 7 days ([2]; 7 x 0.3 mg/kg/day orally): 15%
Inhibition of the formation of granulation tissue after treatment for 7 days ([2]; 7 x 1.0 mg/kg/day orally): 14%
Inhibition of the formation of granulation tissue after treatment for 7 days ([2]; 7 x 3.0 mg/kg/day orally): 22%
Inhibition of the formation of granulation tissue after treatment for 7 days ([2]; 7 x 5.0 mg/kg/day orally): 22%
Inhibition of the formation of granulation tissue after treatment for 7 days ([2]; 7 x 6.0 mg/kg/day orally): 36%
mortality at 168 h ([3]; 6 mg/kg/day): 0%
ED25 [4]: 0.2 mg/kg/day
therapeutic quotient LD50/ED25 [4]: 55
ED (1.5 degC) ([5]; rats, perorally, single dose): 0.4 mg/kg
Maximum reduction in yeast-induced fever over a period of 7 hours ([5]; rats, single oral dose 0.03 mg/kg): 0.4 °C
Maximum reduction in yeast-induced fever over a period of 7 hours ([5]; rats, single oral dose 0.1 mg/kg): 0.8 °C
Maximum reduction in yeast-induced fever over a period of 7 hours ([5]; rats, single oral dose 0.3 mg/kg): 1.4 °C
Maximum reduction in yeast-induced fever over a period of 7 hours ([5]; rats, single oral dose 1 mg/kg): 1.7 °C
ED50 [6]: 1.6 mg/kg
Therapeutic quotient LD50/ED50 [6]: 6.9
Maximum inhibition of carrageenin edema within 7 hours after oral administration ([6]; single oral dose 0.3 mg/kg): 29%
Maximum inhibition of carrageenin edema within 7 hours after oral administration ([6]; single oral dose 1.0 mg/kg): 46%
Maximum inhibition of carrageenin edema within 7 hours after oral administration ([6]; single oral dose 3.0 mg/kg): 56%
LD50 at 168 h [7]: 11 mg/kg

COc1ccc2c(c1)c(CC(=O)O)c(C)n2C(=O)c1ccc(Cl)cc1 [Compound 2, indomethacin, reference compound]
Therapeutic quotient LD50/ED50 [1]: 0.92
therapeutic quotient LD50/ED25 [1]: 4.58
ED25 [1]: 1.2 mg/kg
ED50 [1]: 6 mg/kg
Inhibition of the pain reaction ([1]; single oral dose 1 mg/kg): 23%
Inhibition of the pain reaction ([1]; single oral dose 3 mg/kg): 36%
Inhibition of the pain reaction ([1]; single oral dose 6 mg/kg): 50%
Therapeutic quotient LD50/ED20 [2]: ~ 1.8
Inhibition of the formation of granulation tissue after treatment for 7 days ([2]; 7 x 0.1 mg/kg/day orally): 7%
Inhibition of the formation of granulation tissue after treatment for 7 days ([2]; 7 x 0.3 mg/kg/day orally): 11%
Inhibition of the formation of granulation tissue after treatment for 7 days ([2]; 7 x 1.0 mg/kg/day orally): 16%
Inhibition of the formation of granulation tissue after treatment for 7 days ([2]; 7 x 3.0 mg/kg/day orally): 16%
Inhibition of the formation of granulation tissue after treatment for 7 days ([2]; 7 x 4.0 mg/kg/day orally): 17%
mortality at 168 h ([3]; 5 mg/kg/day): 25%
ED25 [4]: 0.18 mg/kg/day
therapeutic quotient LD50/ED25 [4]: 30.6
ED (1.5 degC) [5]: 5 mg/kg
Maximum reduction in yeast-induced fever over a period of 7 hours ([5]; rats, single oral dose 1 mg/kg): 0.2 °C
Maximum reduction in yeast-induced fever over a period of 7 hours ([5]; rats, single oral dose 3 mg/kg): 0.7 °C
Maximum reduction in yeast-induced fever over a period of 7 hours ([5]; rats, single oral dose 6 mg/kg): 1.8 °C
ED50 [6]: 4.6 mg/kg
Therapeutic quotient LD50/ED50 [6]: 1.2
Maximum inhibition of carrageenin edema within 7 hours after oral administration ([6]; single oral dose 1.0 mg/kg): 29%
Maximum inhibition of carrageenin edema within 7 hours after oral administration ([6]; single oral dose 3.0 mg/kg): 47%
Maximum inhibition of carrageenin edema within 7 hours after oral administration ([6]; single oral dose 10.0 mg/kg): 56%
LD50 at 168 h [7]: 5.5 mg/kg

Cc1cccc(Nc2cscc2C(=O)O)c1C [2,3-dimethylphenyl compound]
antiphlogistic action [8]: comparable to that of phenylbutazone
antipyretic action [9]: superior
